Here are results for two molecules from patent US9073880B2, “2-(2-phenylethenyl) 1,3-benzodiazepine derivatives useful for the treatment of cancer” (Yissum Research Development Company of the Hebrew …, priority 2010, dated 2015).

Experiment [1] has as its system IRS1 and IRS2. The experiment is described as follows: IRS1 and IRS2 serine phosphorylation in A375 cells (western blot). The conditions noted are these: melanoma A375 cells treated 4 hr, 1 and 3 μM; FIG. 4. In kind it is cell-based, human. The method, then:
Tyrosine autophosphorylation of the β-subunit of IGF-1R as well as downstream signaling induced by IGF-1R were assayed in human breast cancer MCF7 cells and in melanoma A375 cells. Cells were seeded in 6-well plates (250,000 A375 cells/well and 300,000 MCF7 cells/well) and 24 hours later medium was replaced by serum-free medium (RPMI supplemented with 100 units/ml penicillin and 100 μg/ml streptomycin). MCF7 cells were exposed for 48 hr to compound 3 at 10 μM concentration, and then stimulated for 5 minutes with 50 ng/ml IGF-1, washed twice with PBS and lysed by boiling sample buffer (10% glycerol, 50 mM Tris-HCl, pH 6.8, 3% SDS, and 5% (3-mercaptoethanol). Equal amounts of protein per lane were separated by 8% SDS-PAGE and transferred to a nitrocellulose membrane (Sartorius AG). Phosphorylated proteins were immunoblotted with anti-phosphoIGF-1R (pIGF-1R), anti-phosphotyrosine-IRS1 (pY-IRS I) and anti-phospho(T308)Akt (pPKB) antibodies. Detection was performed with horseradish peroxidase-conjugated secondary antibody using the ECL system. […]
In addition, lysates of human melanoma A375 cells were prepared from cells exposed to compound 3 at 1 and 3 μM concentrations in serum-free medium. […] In this experiment the phosphorylated form of IRS1 on Serine-636/639 and the levels of IRS2 were detected as well.
(In general: Immunoblotting shows a protein as a band on a membrane.)

In experiment [2] the test system is human melanoma A375 cells. Briefly: Cell death (PARP cleavage) in A375 cells. In kind it is cell-based. The method, then: The effect of compound 5 on IRS1 & IRS2 levels and its effect on IGF1-induced Akt/PKB activation and apoptosis in melanoma A375 cells were tested. Cells were seeded in 6-well plates (150,000 A375 cells/well) and 24 hours later medium was replaced by serum-free medium (RPMI supplemented with 100 units/ml penicillin and 100 μg/ml streptomycin), […], and then stimulated for 5 minutes with 50 ng/ml IGF-1, washed twice with PBS and lysed by boiling sample buffer (10% glycerol, 50 mM Tris-HCl, pH 6.8, 3% SDS, and 5% β-mercaptoethanol). Equal amounts of protein per lane were separated by 8% SDS-PAGE and transferred to a nitrocellulose membrane (Sartorius AG). To detect the inhibition of the Akt/PKB activation, phosphorylated proteins were immunoblotted with anti-phospho(T308)Akt (pT308-PKB) and anti-phospho-Tuberin/TSC2 (pTuberin) antibodies. To visualize cell death induced by compound 5, the intact and the cleaved PARP were immunoblotted with anti-PARP antibody. The changes in the levels of IRS1 and IRS2 were detected with specific antibodies. Detection was performed with horseradish peroxidase-conjugated secondary antibody using the ECL system. Blots were then stripped of antibodies, blocked with TBST with 5% low fat milk and re-probed with antibodies detecting both the phosphorylated and the non-phosphorylated Akt/PKB. […]

`O=c1c(O)cc2cnc(/C=C/c3cc(O)c(O)c(Br)c3)sc-2c1O` [Compound 3]: in experiment [1], the “IRS1 and IRS2 serine phosphorylation” value was “induction of IRS1 and IRS2 serine phosphorylation”. Consider `O=c1c(O)cc2cnc(/C=C/c3ccc(O)c(O)c3Br)sc-2c1O` [Compound 5], for which the “cell death (PARP cleavage)” value in experiment [2] (3 μM, 48 hr, FIG. 6A, 6B) is “induced cell death (PARP cleavage)”. In experiment [2] (5 μM for 4 hr, 24 hr following washout, FIG. 6C), the “cell death (PARP cleavage) after washout” value was “enough to trigger a process which leads to cell death”.
